Reference: article PMC6054832, “Novel pharmacological maps of protein lysine methyltransferases: key for target deorphanization” (Journal of Cheminformatics, 2018)

Tests used:
NSD1 [1] = target: T1, NSD1 (Homo sapiens, UniProt Q96L73); test: radioactive [3H]SAM methyltransferase assay with nucleosome substrate (Eurofins), […]; type: biochemical
SETD2 [2] = target: T2, SETD2 (Homo sapiens, UniProt Q9BYW2); test: biochemical; set-up: Eurofins radiometric methyltransferase inhibition assay with [3H]SAM and nucleosome, core histone or histone H3 substrate
T2 sequence (Q9BYW2 whole entry): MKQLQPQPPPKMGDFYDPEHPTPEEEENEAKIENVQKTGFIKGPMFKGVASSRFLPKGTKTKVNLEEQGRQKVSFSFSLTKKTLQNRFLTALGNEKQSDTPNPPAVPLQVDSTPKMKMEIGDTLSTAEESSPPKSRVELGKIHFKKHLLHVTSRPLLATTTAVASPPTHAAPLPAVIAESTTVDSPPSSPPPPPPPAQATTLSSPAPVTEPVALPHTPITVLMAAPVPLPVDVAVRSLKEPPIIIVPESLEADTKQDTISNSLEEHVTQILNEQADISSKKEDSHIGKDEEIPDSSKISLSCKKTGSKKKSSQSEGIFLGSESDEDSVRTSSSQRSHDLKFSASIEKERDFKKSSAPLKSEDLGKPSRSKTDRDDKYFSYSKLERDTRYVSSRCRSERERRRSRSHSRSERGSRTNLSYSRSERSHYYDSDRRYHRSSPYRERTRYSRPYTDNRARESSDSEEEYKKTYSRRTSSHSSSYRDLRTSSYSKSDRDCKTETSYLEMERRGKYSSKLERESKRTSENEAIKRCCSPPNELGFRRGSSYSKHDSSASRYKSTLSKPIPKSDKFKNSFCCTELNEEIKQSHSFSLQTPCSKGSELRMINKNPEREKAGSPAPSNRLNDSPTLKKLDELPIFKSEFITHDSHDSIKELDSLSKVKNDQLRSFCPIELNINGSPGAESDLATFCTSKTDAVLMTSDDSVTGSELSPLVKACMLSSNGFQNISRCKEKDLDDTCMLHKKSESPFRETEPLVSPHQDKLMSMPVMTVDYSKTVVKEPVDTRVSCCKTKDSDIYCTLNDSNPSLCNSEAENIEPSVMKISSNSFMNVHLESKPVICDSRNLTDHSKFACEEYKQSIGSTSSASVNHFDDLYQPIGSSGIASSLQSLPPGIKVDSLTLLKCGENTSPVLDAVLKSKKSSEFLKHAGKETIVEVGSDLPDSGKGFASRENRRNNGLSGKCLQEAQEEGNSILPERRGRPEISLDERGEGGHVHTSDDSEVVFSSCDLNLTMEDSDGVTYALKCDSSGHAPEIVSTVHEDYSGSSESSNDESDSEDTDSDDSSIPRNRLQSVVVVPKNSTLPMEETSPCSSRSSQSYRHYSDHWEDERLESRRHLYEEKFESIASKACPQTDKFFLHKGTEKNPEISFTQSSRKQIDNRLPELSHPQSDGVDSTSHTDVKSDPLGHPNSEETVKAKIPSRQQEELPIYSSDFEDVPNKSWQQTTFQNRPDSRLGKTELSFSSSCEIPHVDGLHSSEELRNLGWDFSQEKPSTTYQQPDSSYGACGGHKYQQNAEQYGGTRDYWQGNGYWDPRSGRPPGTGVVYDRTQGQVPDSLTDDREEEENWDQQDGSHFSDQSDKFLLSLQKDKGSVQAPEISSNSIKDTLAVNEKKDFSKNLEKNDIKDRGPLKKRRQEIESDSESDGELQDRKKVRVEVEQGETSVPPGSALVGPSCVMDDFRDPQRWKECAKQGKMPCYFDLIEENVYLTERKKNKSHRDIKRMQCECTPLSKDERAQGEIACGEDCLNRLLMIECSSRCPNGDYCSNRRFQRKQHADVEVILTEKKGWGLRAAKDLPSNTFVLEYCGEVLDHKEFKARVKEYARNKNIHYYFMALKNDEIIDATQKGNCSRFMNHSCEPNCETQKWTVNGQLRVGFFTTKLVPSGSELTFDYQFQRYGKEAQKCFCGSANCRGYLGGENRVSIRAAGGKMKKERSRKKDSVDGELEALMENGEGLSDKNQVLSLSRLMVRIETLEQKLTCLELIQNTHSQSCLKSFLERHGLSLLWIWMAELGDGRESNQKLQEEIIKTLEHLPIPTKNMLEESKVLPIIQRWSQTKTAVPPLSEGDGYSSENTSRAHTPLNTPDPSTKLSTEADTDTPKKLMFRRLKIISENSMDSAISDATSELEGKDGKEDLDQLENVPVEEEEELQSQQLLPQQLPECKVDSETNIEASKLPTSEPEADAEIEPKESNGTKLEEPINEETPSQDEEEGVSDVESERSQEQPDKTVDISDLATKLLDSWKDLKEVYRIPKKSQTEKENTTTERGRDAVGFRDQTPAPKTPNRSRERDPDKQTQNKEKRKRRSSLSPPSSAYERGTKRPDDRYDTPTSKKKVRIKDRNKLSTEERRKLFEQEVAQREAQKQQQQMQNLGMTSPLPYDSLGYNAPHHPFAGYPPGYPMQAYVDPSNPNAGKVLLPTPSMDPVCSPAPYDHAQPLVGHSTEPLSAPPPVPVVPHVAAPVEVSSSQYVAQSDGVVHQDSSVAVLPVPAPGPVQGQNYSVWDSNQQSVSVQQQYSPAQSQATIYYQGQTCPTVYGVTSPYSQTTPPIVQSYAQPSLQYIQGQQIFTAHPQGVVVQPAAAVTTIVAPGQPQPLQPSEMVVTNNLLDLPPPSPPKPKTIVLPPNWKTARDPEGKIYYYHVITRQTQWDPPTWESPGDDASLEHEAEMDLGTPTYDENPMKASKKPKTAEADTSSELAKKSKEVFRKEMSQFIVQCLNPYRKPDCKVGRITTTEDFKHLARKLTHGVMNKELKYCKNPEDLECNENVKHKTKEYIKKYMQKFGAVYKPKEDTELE
From the text: (§1) Inhibitory activity assays for prospective validation

KMT5C [3] = target: T3, KMT5C (Homo sapiens, UniProt Q86Y97); test: biochemical; set-up: Eurofins radiometric methyltransferase inhibition assay with [3H]SAM and nucleosome, core histone or histone H3 substrate
T3 sequence (Q86Y97 whole entry): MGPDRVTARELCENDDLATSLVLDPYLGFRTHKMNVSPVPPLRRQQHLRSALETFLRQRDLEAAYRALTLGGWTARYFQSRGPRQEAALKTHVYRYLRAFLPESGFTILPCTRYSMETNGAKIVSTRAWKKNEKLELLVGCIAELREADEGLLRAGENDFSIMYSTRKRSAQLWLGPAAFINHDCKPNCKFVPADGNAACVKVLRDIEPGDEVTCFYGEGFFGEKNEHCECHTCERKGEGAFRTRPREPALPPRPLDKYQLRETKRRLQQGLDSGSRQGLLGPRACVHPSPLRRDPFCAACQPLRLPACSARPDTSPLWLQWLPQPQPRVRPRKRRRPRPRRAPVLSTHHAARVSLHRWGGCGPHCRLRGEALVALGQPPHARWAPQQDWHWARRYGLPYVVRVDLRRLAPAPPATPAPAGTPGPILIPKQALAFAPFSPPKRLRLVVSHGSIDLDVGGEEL
From the text: as §1

KMT2A = KMT2A (Homo sapiens, UniProt Q03164); test: biochemical; set-up: Eurofins radiometric methyltransferase inhibition assay with [3H]SAM and nucleosome, core histone or histone H3 substrate
From the text: as §1

NSD1 [4] = target: T1, NSD1; test: biochemical; set-up: Eurofins radiometric methyltransferase inhibition assay with [3H]SAM and nucleosome, core histone or histone H3 substrate
From the text: as §1

NSD2 = target: T4, NSD2 (Homo sapiens, UniProt O96028); test: biochemical; set-up: Eurofins radiometric methyltransferase inhibition assay with [3H]SAM and nucleosome, core histone or histone H3 substrate
T4 sequence (O96028 1-1365): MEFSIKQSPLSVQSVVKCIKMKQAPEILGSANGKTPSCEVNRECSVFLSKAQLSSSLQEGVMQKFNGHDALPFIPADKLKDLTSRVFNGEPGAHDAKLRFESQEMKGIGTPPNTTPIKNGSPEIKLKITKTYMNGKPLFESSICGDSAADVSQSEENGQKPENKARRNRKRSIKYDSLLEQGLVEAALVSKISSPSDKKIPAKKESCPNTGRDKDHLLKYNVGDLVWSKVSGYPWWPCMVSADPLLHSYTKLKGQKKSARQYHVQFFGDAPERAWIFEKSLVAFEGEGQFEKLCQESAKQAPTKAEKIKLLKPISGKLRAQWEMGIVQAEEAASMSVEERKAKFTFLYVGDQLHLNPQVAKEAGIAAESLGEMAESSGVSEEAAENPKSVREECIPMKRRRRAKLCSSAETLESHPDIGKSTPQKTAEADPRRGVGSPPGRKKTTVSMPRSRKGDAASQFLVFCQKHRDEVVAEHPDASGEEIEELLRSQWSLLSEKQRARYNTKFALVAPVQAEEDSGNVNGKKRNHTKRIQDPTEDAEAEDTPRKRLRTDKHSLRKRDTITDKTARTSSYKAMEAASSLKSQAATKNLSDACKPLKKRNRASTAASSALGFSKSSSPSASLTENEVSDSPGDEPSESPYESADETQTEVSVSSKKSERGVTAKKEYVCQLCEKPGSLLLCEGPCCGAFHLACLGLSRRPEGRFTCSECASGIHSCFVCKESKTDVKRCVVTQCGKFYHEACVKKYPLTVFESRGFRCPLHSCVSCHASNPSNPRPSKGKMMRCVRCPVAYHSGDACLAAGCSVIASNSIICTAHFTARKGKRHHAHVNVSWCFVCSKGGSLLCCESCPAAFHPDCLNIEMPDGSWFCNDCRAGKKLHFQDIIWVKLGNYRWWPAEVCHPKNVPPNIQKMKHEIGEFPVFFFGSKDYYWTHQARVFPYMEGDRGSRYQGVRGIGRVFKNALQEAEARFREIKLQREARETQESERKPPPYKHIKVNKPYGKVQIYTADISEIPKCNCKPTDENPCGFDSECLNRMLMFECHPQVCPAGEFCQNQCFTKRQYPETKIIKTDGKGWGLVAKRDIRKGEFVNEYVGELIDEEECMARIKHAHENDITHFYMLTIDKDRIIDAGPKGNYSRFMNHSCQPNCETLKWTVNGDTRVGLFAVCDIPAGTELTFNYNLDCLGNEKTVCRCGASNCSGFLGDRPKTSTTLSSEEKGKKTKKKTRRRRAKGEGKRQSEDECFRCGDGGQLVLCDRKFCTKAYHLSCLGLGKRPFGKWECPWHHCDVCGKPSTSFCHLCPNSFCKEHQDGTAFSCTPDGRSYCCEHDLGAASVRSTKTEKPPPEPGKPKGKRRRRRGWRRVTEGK
From the text: as §1

KMT5C [5] = target: T3, KMT5C; test: radioactive [3H]SAM methyltransferase assay with nucleosome substrate (Eurofins), […]; type: biochemical
SETD2 [6] = target: T2, SETD2; test: as above; type: biochemical

SMILES	inhibition at 10 µM (NSD1 [1])	inhibition at 10 µM (SETD2 [2])	inhibition at 100 µM (SETD2 [2])	inhibition at 10 µM (KMT5C [3])	inhibition at 100 µM (KMT5C [3])	inhibition at 10 µM (KMT2A)	inhibition at 100 µM (KMT2A)	inhibition at 10 µM (NSD1 [4])	inhibition at 100 µM (NSD1 [4])	inhibition at 10 µM (NSD2)	inhibition at 100 µM (NSD2)	radioactive [3H]SAM methyltransferase assay with nucleosome substrate (Eurofins) (KMT5C [5])	inhibition at 100 µM (SETD2 [6])
COc1cc2c(NC3CCN(C)CC3)cc(-c3ccc(C)o3)nc2cc1OC1CC2(C1)CN(C)C2 [CM-986]	> 50%	-69.8%	42.1%	79.1%	87.7%	2.9%	30.5%	55.9%	98.8%	-7.2%	2.7%	low micromolar range	
COc1cc2c(NC3CC4(CCN(C)CC4)C3)cc(-c3ccc(C)o3)nc2cc1OCCCN1CCCC1 [CM-679]	> 50%	-52.4%		85.7%	92.9%	8.6%	48.8%	81.7%	98%	11.9%	0.3%	low micromolar range	84%
COc1cc2c(NC3CCN(C)CC3)cc(-c3ccc(C)o3)nc2cc1OCCCN1CCCC1 [CM-272]	> 50%		45.9%	92%	91.8%	-1%	7.4%	63.5%	97.8%	-0.5%	11.7%	low micromolar range	
